Tested on: Donor 4 COP T-cell lines (205-1D1, 205-1H7, 205-1F4)
Test: MHC DR restriction testing (ATP proliferation with autologous and partially HLA-DR matched B-LCL), Donor 4 COP T-cell lines
Type: cell-based, human
Conditions: for Proliferation with antigen-incubated B-LCL, Mean: T-cell line 205-1F4
Protocol: MHC DR restriction testing of cell lines was carried out by measuring the proliferation response of the cell lines as described above in the presence of an array of APC selected based on the known HLA-DR loci of the original PBMC donor for the cell line tested, including autologous APC (B-LCL). The donors used are described in Table 2.
To define the MHC molecule used to present antigen to GA specific T cell lines, GA specific responses were measured in the presence of autologous APC and in the presence of APC matching one of the T cell donor's HLA-DR alleles. Therefore at least 3 APC were used in each experiment: autologous APC, APC matching DR allele 1 but not allele 2 and a third APC matching allele 2 but not allele 1. In some experiments a fourth APC B-LCL was used. A no antigen negative control was used. APC were inactivated by incubation with 50 ug/mL mitomycin C. Following inactivation, cells were washed three times to remove mitomycin C and suspended in X-VIVO 15 medium at 1×10^6 cells per mL. GA was added to the cell suspension to a final concentration of 20-60 μg/mL. The cells were incubated with antigen for 1 hour at 37° C. to allow antigen uptake and binding. The cell suspension was then centrifuged to pellet the cells and the cell pellet was washed once with medium. APC were adjusted to 2×10^5 cells per mL in X-VIVO 15 medium and added to opaque 96-well plates at 100 μL per well. T-cell suspensions of 2-4×10^5 cells per mL (unless otherwise specified) were added to the 96-well plates at 100 μL per well and the cultures incubated 4 days before measuring cell numbers using CellTiter Glo® (to evaluate proliferation).
Alternatively, APC were not pulsed. Instead, each well contained 10 ug/mL antigen, 50 μl APC and 100 μL of T cells.
After incubating for 4 days at 37° C. (5% CO2), 100 μL were removed from each well, combined with 100 μL CellTiterGlo reagent, and luminescence was measured using a Packard Fusion. Results were expressed in relative light units (RLU).
As described in the Methods, T-cell lines were tested for MHC restriction by measuring proliferation following incubation with APC. Mitomycin-treated autologous APC, and test APC, e.g., from donors having at least one HLA-DR match with the original PBMC donor were employed. The values in the data tables below are in RLU.
(§1) Donor 4 T-cell line 205-1D1 was assayed for proliferation, using autologous B-LCL, and B-LCL from Donors 1, 2, and 6 that had been incubated in the presence or absence of 60 μg/mL COP. T-cell line 205-1D1 was restimulated 5 times (not including the initial stimulation) with antigen before the MHC restriction assay was carried out. The results, shown in Table 73, indicate that 205-1D1 is restricted by HLA-DRβ1*13.
as §1, with “205-1H7” for “205-1D1”, “40” for “60”, “74 and FIG. 14B,” for “73,”
Donor 4 T-cell line 205-1F4 and 205-1C4 was assayed for proliferation, using autologous B-LCL, and B-LCL from Donors 1, 2, and 6 that had been incubated in the presence or absence of 40 μg/mL COP. T-cell line 205-1F4 was restimulated 7 times (not including the initial stimulation) with antigen before the MHC restriction assay was carried out. The results, shown in Table 75, indicate that 205-1F4 is restricted by HLA-DRβ1*13.

## glatiramer acetate [COP]
T-cell line 205-1D1, B-LCL Donor 1 DRβ1*04:01/DRβ1*07:01, 60 μg/mL
  Proliferation with antigen-incubated B-LCL: 1504.7 RLU
T-cell line 205-1D1, B-LCL Donor 2 DRβ1*04:01/DRβ1*04:04, 60 μg/mL
  Proliferation with antigen-incubated B-LCL: 1203.7 RLU
T-cell line 205-1D1, B-LCL Donor 4 (autologous) DRβ1*07/DRβ1*13, 60 μg/mL
  Proliferation with antigen-incubated B-LCL: 231113.0 RLU
T-cell line 205-1D1, B-LCL Donor 6 DRβ1*15:01/DRβ1*13, 60 μg/mL
  Proliferation with antigen-incubated B-LCL: 203780.3 RLU
APC donor 1 *04:01, *07, 40 μg/mL
  Proliferation with antigen-incubated B-LCL, Mean: 11323 RLU
APC donor 2 *04:01*04:04, 40 μg/mL
  Proliferation with antigen-incubated B-LCL, Mean: 1786 RLU
APC donor 4 (autologous) *07, *13, 40 μg/mL
  Proliferation with antigen-incubated B-LCL, Mean: 84094 RLU
APC donor 6 *13, *15, 40 μg/mL
  Proliferation with antigen-incubated B-LCL, Mean: 113079 RLU
T-cell line 205-1H7, B-LCL Donor 1 DRβ1*04:01/DRβ1*07:01, 40 μg/mL
  Proliferation with antigen-incubated B-LCL: 8430 RLU
T-cell line 205-1H7, B-LCL Donor 2 DRβ1*04:01/DRβ1*04:04, 40 μg/mL
  Proliferation with antigen-incubated B-LCL: 2065 RLU
T-cell line 205-1H7, B-LCL Donor 4 (autologous) DRβ1*07/DRβ1*13, 40 μg/mL
  Proliferation with antigen-incubated B-LCL: 32418 RLU
T-cell line 205-1H7, B-LCL Donor 6 DRβ1*15:01/DRβ1*13, 40 μg/mL
  Proliferation with antigen-incubated B-LCL: 30583 RLU

Reference: patent US9995734B2, “Human T cell line assay for evaluating the immunologic identity of glatiramer acetate preparations” (Mylan Inc., priority 2013, dated 2018)
